The source of these data is US11780845B2 (Relay Therapeutics, Inc., priority 2019, dated 2023).

The target in one assay is FGFR2 (Homo sapiens (Human), UniProt P21802). Briefly: Biochemical FGFR2 Caliper assay.
Another assay has as its system SNU-16. Description: Cell SNU-16 assay. Type of assay: cell-based.
The mark [1] stands for this setting: Homo sapiens, SNU-16, SNU-16 cells.

FGFR2, sequence (P21802 22-821): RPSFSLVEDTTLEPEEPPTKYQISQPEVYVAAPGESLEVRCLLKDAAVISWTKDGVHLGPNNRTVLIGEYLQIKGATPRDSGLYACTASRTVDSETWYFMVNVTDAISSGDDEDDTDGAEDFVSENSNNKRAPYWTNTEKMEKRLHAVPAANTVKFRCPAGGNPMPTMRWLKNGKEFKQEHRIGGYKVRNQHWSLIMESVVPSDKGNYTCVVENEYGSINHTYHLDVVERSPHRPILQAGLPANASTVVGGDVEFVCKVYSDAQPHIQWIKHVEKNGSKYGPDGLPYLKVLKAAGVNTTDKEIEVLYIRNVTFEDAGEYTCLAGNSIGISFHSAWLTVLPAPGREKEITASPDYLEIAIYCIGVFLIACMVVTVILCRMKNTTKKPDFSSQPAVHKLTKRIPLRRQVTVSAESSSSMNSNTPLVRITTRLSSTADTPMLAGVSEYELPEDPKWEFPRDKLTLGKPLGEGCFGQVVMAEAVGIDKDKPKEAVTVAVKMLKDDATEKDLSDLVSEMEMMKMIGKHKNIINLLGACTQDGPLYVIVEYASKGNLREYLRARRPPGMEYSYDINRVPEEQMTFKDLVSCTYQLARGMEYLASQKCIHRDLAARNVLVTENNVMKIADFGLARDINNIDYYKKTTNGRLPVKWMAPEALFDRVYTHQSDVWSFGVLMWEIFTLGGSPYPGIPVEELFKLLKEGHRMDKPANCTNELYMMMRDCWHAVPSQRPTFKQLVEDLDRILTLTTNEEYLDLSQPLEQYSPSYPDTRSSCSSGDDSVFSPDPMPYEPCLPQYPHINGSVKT

By IC50 is commonly meant the concentration at which inhibition is half-maximal. A lower IC50 goes with greater potency. For `C=C(C)C(=O)Nc1ccc(-c2c(C3=CCC(S(=O)(=O)C4CCCC4)CC3)c3c(N)ncnc3n2C)cc1` (centres unmarked) [Example 1047], the half-inhibitory concentration (IC50) at FGFR2 and in the assay with SNU-16 (setting [1]) was 250 to 1000 nM throughout.

As for `C=CC(=O)N[C@@H]1C[C@@H]1c1c(-c2ccc(C(=O)N3CCCC3)cc2)c2c(N)ncnc2n1C` (single isomer, unassigned) [Example 973], the IC50 against FGFR2 fell in the range of 250 to 1000 nM; in the assay on SNU-16 (setting [1]), 1000 to 100000 nM.

`C#Cc1ccc(-c2c(-c3ccc(Oc4nccc(C)n4)cc3)c3c(N)ncnc3n2C)c(C)n1` [Example 1085]: the IC50 against FGFR2 and with SNU-16 (setting [1]) was 1000 to 100000 nM in each case.

Turning to `C=CC(=O)N1CC=C(c2c(C3=CC[C@@H](C(=O)N4CCCC4)CC3)c3c(N)ncnc3n2C)C1` (single isomer, unassigned) [Example 872], the IC50 against FGFR2 and with SNU-16 (setting [1]) was 100 to 250 nM in each case.

As for `C#Cc1cc(C)c(-c2c(C3=CC[C@@H](C(=O)N4CCCC45CC5)CC3)c3c(N)ncnc3n2C)cn1` [Example 1341], the IC50 was less than 100 nM against FGFR2 and 250 to 1000 nM in the assay with SNU-16 (setting [1]).

Turning to `C=CC(=O)Nc1ccc(-c2cn3ncnc(N)c3c2-c2ccc(Oc3cccc(C)n3)cc2)cc1` [Example 829], the IC50 against FGFR2 was less than 100 nM; with SNU-16 (setting [1]) it was no more than 100 nM.

Take `C=Cc1ncc(-c2ccc(-c3c(-c4ccc(Oc5nccc(C)n5)cc4)c4c(N)ncnc4n3C)cc2)s1` [Example 984]: the IC50 was less than 100 nM at FGFR2 and no more than 100 nM in the assay on SNU-16 (setting [1]).

In the case of `C=CC(=O)N1CCC(O)(c2c(-c3ccc(Oc4cccc(C)n4)cc3)c3c(N)ncnc3n2C)C1` (centres unmarked) [Example 833], the IC50 lay within 100 to 250 nM at FGFR2 and 250 to 1000 nM in the assay on SNU-16 (setting [1]).

In the case of `Cc1ccnc(Oc2ccc(-c3c(-c4ccc(NC(=O)CCl)cc4)n(C)c4ncnc(N)c34)cc2)n1` [Example 897], the IC50 on FGFR2 was 100 to 250 nM; with SNU-16 (setting [1]), no more than 100 nM.

Consider `C#Cc1cc(C)c(-c2c(-c3ccc(Oc4nccc(C)n4)c(F)c3)c3c(N)ncnc3n2C(C)C)cn1` [Example 1213], for which the results for the IC50 on FGFR2 and in the assay with SNU-16 (setting [1]) were less than 100 nM and no more than 100 nM, respectively.

Regarding `C#Cc1nc(C)c(-c2c(-c3ccc(Oc4nccc(C)n4)cc3)c3c(N)ncnc3n2C)cc1F` [Example 1171], the IC50 was less than 100 nM on FGFR2 and no more than 100 nM in the assay on SNU-16 (setting [1]).

On to `C=C(C)C(=O)Nc1ccc(-c2c(C3=CC[C@H](C(=O)N4CCC[C@H]4C4CC4)CC3)c3c(N)ncnc3n2C)cc1` [Example 1059], for which the concentration for half-maximal inhibition (IC50) against FGFR2 and with SNU-16 (setting [1]) was 1000 to 100000 nM each time.

For `C#Cc1cc(CCCO)c(-c2[nH]c3ncnc(N)c3c2-c2ccc(Oc3nccc(C)n3)c(F)c2)cn1` [Example 1478], the values for the IC50 at FGFR2 and in the assay with SNU-16 (setting [1]) were 250 to 1000 nM and 100 to 250 nM, respectively.

With `C#Cc1cc(-c2c(-c3ccccc3)c3c(N)ncnc3n2C)ccn1` [Example 1193], the IC50 on FGFR2 and with SNU-16 (setting [1]) was 250 to 1000 nM each time.

Take `C#Cc1cc(C)c(-c2c(C3=CC[C@H](C(=O)N4CCC[C@H]4C#N)CC3)c3c(C)ncnc3n2C)c(C)n1` (atropisomer, axis not shown) [Example 1465]: the IC50 against FGFR2 was less than 100 nM; in the assay with SNU-16 (SNU-16 cells) it was no more than 100 nM.

For `C=C(C)C(=O)Nc1ccc(-c2c(-c3ccc(-c4nnc(C)o4)cc3)c3c(N)ncnc3n2C)cc1` [Example 1123], the concentration for half-maximal inhibition (IC50) at FGFR2 lay within 1000 to 100000 nM; with SNU-16 (setting [1]), 250 to 1000 nM.

Consider `C#Cc1cc(C(F)F)c(-c2c(-c3ccc(Oc4nccc(C)n4)c(F)c3)c3c(N)ncnc3n2C)cn1` [Example 1253], for which the IC50 was less than 100 nM against FGFR2 and no more than 100 nM in the assay with SNU-16 (setting [1]).

`C=CC(=O)N1CCC(n2cc(-c3c(-c4ccc(C(=O)NC5CCOC5)cc4)c4c(N)ncnc4n3C)cn2)CC1` (centres unmarked) [Example 845]: the half-maximal inhibitory concentration (IC50) against FGFR2 and in the assay with SNU-16 (setting [1]) was 250 to 1000 nM throughout.

For `C=C(C)C(=O)Nc1cc(-c2c(-c3ccc(C(=O)N4CCCC4)cc3)c3c(N)ncnc3n2C)n(C)n1` [Example 865], the results for the IC50 against FGFR2 and in the assay on SNU-16 (SNU-16 cells) were 100 to 250 nM and 250 to 1000 nM, respectively.

As to `C#Cc1cc(C)c(-c2c(C3=CC[C@@H](C(=O)N4CCC[C@@H]4C)CC3)c3c(N)ncnc3n2C)cn1` (single isomer, unassigned) [Example 1210], the values for the IC50 against FGFR2 and in the assay with SNU-16 (setting [1]) were less than 100 nM and no more than 100 nM, respectively.

Turning to `C=C(C)C(=O)Nc1cc(-c2c(-c3ccc(C(=O)N4CCCC4)cc3)c3c(N)ncnc3n2C)n(C)n1` [Example 866], the IC50 against FGFR2 was less than 100 nM; with SNU-16 (SNU-16 cells), no more than 100 nM.

Take `Cc1ccnc(Oc2ccc(-c3c(-c4ccc(C)nc4C)n(C)c4ncnc(N)c34)cc2F)n1` [Example 1206]: the IC50 at FGFR2 and in the assay on SNU-16 (setting [1]) was 250 to 1000 nM each time.

In the case of `C#Cc1cnc2cc(-c3c(-c4ccc(Oc5nccc(C)n5)c(F)c4)c4c(N)ncnc4n3C)ccc2c1` [Example 1425], the IC50 against FGFR2 and with SNU-16 (setting [1]) was 1000 to 100000 nM in each case.

For `C=CC(=O)Nc1ccc(-c2c(-c3ccc(Oc4nccc(C)n4)cc3)c3c(N)ncnc3n2C)c(C)c1` [Example 1092], the half-maximal inhibitory concentration (IC50) was less than 100 nM at FGFR2 and no more than 100 nM in the assay with SNU-16 (setting [1]).

Consider `C#Cc1nc(C)c(-c2c(-c3ccc(Oc4nccc(C)n4)c(F)c3)c3c(N)ncnc3n2C)c(C)n1` [Example 1438], for which the IC50 at FGFR2 is less than 100 nM; with SNU-16 (setting [1]) it was no more than 100 nM.

With `C#Cc1cc(OC)c(-c2c(C3=CC[C@H](C(=O)N4CCC[C@H]4C)CC3)c3c(N)ncnc3n2C)cn1` [Example 1355], the IC50 is less than 100 nM against FGFR2 and no more than 100 nM with SNU-16 (setting [1]).

In the case of `C=C(C)C(=O)Nc1ccc(-c2c(-c3ccc(C(=O)NC4CC(F)(F)C4)c(OC)c3)c3c(N)ncnc3n2C)cc1` [Example 912], the IC50 against FGFR2 was less than 100 nM; with SNU-16 (setting [1]), no more than 100 nM.

With `C#Cc1cc(OC)c(-c2c(-c3ccc(Oc4nccc(C)n4)c(F)c3)c3c(C)ncnc3n2C)c(C)n1` (atropisomer, axis not shown) [Example 1460], the IC50 at FGFR2 lay within 1000 to 100000 nM; with SNU-16 (SNU-16 cells) it was 250 to 1000 nM.

As for `Cc1ccnc(Oc2ccc(-c3c(-c4ccc(-c5cnc(C#N)s5)cc4)n(C)c4ncnc(N)c34)cc2)n1` [Example 959], the IC50 at FGFR2 was 250 to 1000 nM; in the assay with SNU-16 (setting [1]) it was no more than 100 nM.

As for `C#Cc1cc(C)c(-c2c(C3=CC[C@@H](C(=O)N4CCC[C@H]4C#N)CC3)c3c(N)ncnc3n2C)cn1` [Example 1252], the IC50 at FGFR2 is less than 100 nM; in the assay with SNU-16 (setting [1]) it was no more than 100 nM.

For `C=C(C)C(=O)Nc1ccc(-c2c(-c3ccc(C(=O)N[C@H]4C[C@H](F)C4)c(OC)c3)c3c(N)ncnc3n2C)cc1` [Example 965], the IC50 against FGFR2 was less than 100 nM; in the assay with SNU-16 (setting [1]), no more than 100 nM.

Turning to `C=CC(=O)Nc1ccc(-c2c(C3=CC[C@@H](C(=O)N4CCCC4)CC3)c3c(C)ncnc3n2C)c(C)c1` (single isomer, unassigned) [Example 1106], the IC50 against FGFR2 was less than 100 nM; with SNU-16 (setting [1]), no more than 100 nM.

Turning to `C=C(C)C(=O)Nc1ccc(-c2c(-c3ccc(C(=O)N4CCCC4)cc3)c3c(N)n[nH]c(=O)c3n2C)cc1` [Example 879], the concentration for half-maximal inhibition (IC50) at FGFR2 and in the assay on SNU-16 (SNU-16 cells) was 1000 to 100000 nM throughout.

Regarding `C#Cc1cc(C)c(-c2c(-c3ccc(OC(C)C)cc3)c3c(N)ncnc3n2C)cn1` [Example 1160], the IC50 against FGFR2 was less than 100 nM; with SNU-16 (setting [1]), no more than 100 nM.

Take `C=C(C)C(=O)Nc1ccc(-c2c(-c3cccc(O)c3)c3c(N)ncnc3n2C)cc1` [Example 1298]: the IC50 was in the range of 250 to 1000 nM at FGFR2 and 1000 to 100000 nM with SNU-16 (setting [1]).

For `C=C(C)C(=O)Nc1ccc(-c2c(C3=CC[C@H](C(=O)N4CCC[C@H]4COC)CC3)c3c(N)ncnc3n2C)cc1` (single isomer, unassigned) [Example 982], the IC50 against FGFR2 was in the range of 1000 to 100000 nM; with SNU-16 (setting [1]), 250 to 1000 nM.

Take `C=CC(=O)N[C@@H]1CCc2cc(-c3c(-c4ccc(Oc5nccc(C)n5)cc4)c4c(N)ncnc4n3C)ccc21` (single isomer, unassigned) [Example 942]: the IC50 against FGFR2 and in the assay with SNU-16 (setting [1]) was 250 to 1000 nM throughout.

Turning to `C=C(C)C(=O)Nc1ccc(-c2c(-c3ccc(OCc4ccccn4)c(F)c3)c3c(N)ncnc3n2C)cc1` [Example 1436], the IC50 against FGFR2 and with SNU-16 (setting [1]) was 1000 to 100000 nM in each case.

Turning to `C#Cc1ccc(-c2c(C3=CC[C@H](C(=O)N4CCCC4)CC3)c3cncnc3n2C)c(C)n1` (single isomer, unassigned) [Example 1207], the IC50 on FGFR2 and in the assay with SNU-16 (setting [1]) was 1000 to 100000 nM each time.

In the case of `C=C(C)C(=O)Nc1ccc(-c2c(C3=CC[C@@H](S(=O)(=O)N4CCCC4)CC3)c3c(N)ncnc3n2C)c(C)c1` [Example 1115], the IC50 against FGFR2 and with SNU-16 (setting [1]) was 1000 to 100000 nM throughout.

Turning to `C#Cc1ncc(-c2c(-c3ccc(Oc4nccc(C)n4)c(F)c3)c3c(N)ncnc3n2C(C)C)c(C)c1F` [Example 1334], the IC50 on FGFR2 was less than 100 nM; in the assay on SNU-16 (setting [1]), no more than 100 nM.

`C#Cc1ncc(-c2c(C3=CC[C@@H](C(=O)N4CCCC4)CC3)c3c(C)ncnc3n2C)c(C)n1` (single isomer, unassigned) [Example 1166]: the IC50 was less than 100 nM against FGFR2 and no more than 100 nM in the assay with SNU-16 (setting [1]).

`C#Cc1cc(-c2c(-c3ccc(Oc4nccc(C)n4)cc3)c3c(N)ncnc3n2C)n(C)n1` [Example 1236]: the IC50 against FGFR2 and in the assay with SNU-16 (setting [1]) was 1000 to 100000 nM each time.

In the case of `C=Cc1ncc(-c2c(-c3ccc(Oc4nccc(C)n4)cc3)c3c(N)ncnc3n2C)cn1` [Example 877], the IC50 fell in the range of 100 to 250 nM at FGFR2 and 250 to 1000 nM with SNU-16 (setting [1]).

Turning to `C#Cc1cc(C)c(-c2c(-c3ccc(Oc4nccc(C)n4)c(F)c3)c3c(N)ncnc3n2C)cn1` [Example 1439], the IC50 against FGFR2 was less than 100 nM; in the assay on SNU-16 (SNU-16 cells), no more than 100 nM.

Take `C#Cc1cc(C)c(-c2c(-c3ccc(Oc4nccc(C)n4)c(F)c3)c3c(C)ncnc3n2C)c(C)n1` [Example 1406]: the IC50 against FGFR2 is less than 100 nM; in the assay on SNU-16 (setting [1]), no more than 100 nM.

Consider `C=C(C)C(=O)Nc1ccc(-c2c(C3=CC[C@H](C(=O)N4CCCC4)C[C@H]3C)c3c(N)ncnc3n2C)cc1` (single isomer, unassigned) [Example 938], for which the IC50 against FGFR2 and in the assay on SNU-16 (setting [1]) was 1000 to 100000 nM throughout.

Turning to `Cc1ccnc(Oc2ccc(-c3c(-c4ccc(NCC#N)cc4)n(C)c4ncnc(N)c34)cc2F)n1` [Example 1266], the IC50 against FGFR2 was 1000 to 100000 nM; in the assay with SNU-16 (setting [1]), 250 to 1000 nM.

Take `C=C(C)C(=O)Nc1ccc(-c2c(C3=COCCC3)c3c(N)ncnc3n2C)cc1` [Example 1268]: the IC50 against FGFR2 and with SNU-16 (setting [1]) was 1000 to 100000 nM throughout.
